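The concentration for 50% growth inhibition is given as GI50. At the TGI there is no net growth.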
How the values were obtained:
Assay in all cases: NCI-60 cell line screen, 384-well format
CCRF-CEM leukemia = system: CCRF-CEM leukemia
HCT-15 colon = system: HCT-15 colon
M14 melanoma = system: M14 melanoma
SNB-75 CNS = system: SNB-75 CNS
EKVX NSCLC = system: EKVX NSCLC
BT-549 breast = system: BT-549 breast
RPMI-8226 leukemia = system: RPMI-8226 leukemia
SF-539 CNS = system: SF-539 CNS
A498 renal = system: A498 renal
IGROV1 ovarian = system: IGROV1 ovarian
MDA-MB-231 breast = system: MDA-MB-231 breast
UO-31 renal = system: UO-31 renal
SK-OV-3 ovarian = system: SK-OV-3 ovarian
SK-MEL-5 melanoma = system: SK-MEL-5 melanoma
PC-3 prostate = system: PC-3 prostate
NCI-H322M lung = system: NCI-H322M lung
SNB-19 CNS = system: SNB-19 CNS
NCI-H522 lung = system: NCI-H522 lung
NCI-H23 lung = system: NCI-H23 lung
SN12C renal = system: SN12C renal
KM12 colon = system: KM12 colon
TK-10 renal = system: TK-10 renal
OVCAR-5 ovarian = system: OVCAR-5 ovarian
MDA-MB-468 breast = system: MDA-MB-468 breast
OVCAR-3 ovarian = system: OVCAR-3 ovarian
DU-145 prostate = system: DU-145 prostate
LOX IMVI melanoma = system: LOX IMVI melanoma
U251 glioblastoma = system: U251 glioblastoma
HCT-116 colon = system: HCT-116 colon
MOLT-4 leukemia = system: MOLT-4 leukemia
HL-60(TB) leukemia = system: HL-60(TB) leukemia
SW-620 colon = system: SW-620 colon
SK-MEL-28 melanoma = system: SK-MEL-28 melanoma
MCF7 breast = system: MCF7 breast
NCI-H226 lung = system: NCI-H226 lung
K-562 leukemia = system: K-562 leukemia
786-0 renal = system: 786-0 renal
MALME-3M melanoma = system: MALME-3M melanoma
SK-MEL-2 melanoma = system: SK-MEL-2 melanoma
NCI/ADR-RES ovarian = system: NCI/ADR-RES ovarian
MDA-MB-435 melanoma = system: MDA-MB-435 melanoma
CAKI-1 renal = system: CAKI-1 renal
T-47D breast = system: T-47D breast
ACHN renal = system: ACHN renal
OVCAR-8 ovarian = system: OVCAR-8 ovarian
HT29 colon = system: HT29 colon
UACC-62 melanoma = system: UACC-62 melanoma

Compound `c1ccc2c(NCCCN3CCN(CCCNc4c5ccccc5nc5ccccc45)CC3)c3ccccc3nc2c1` has a GI50 (CCRF-CEM leukemia) of 0.118 µM, a TGI (CCRF-CEM leukemia) of 0.551 µM and a GI50 (HCT-15 colon) of 2.58 µM. For the same compound, the TGI (HCT-15 colon) was 8.97 µM, the GI50 (M14 melanoma) was 1.32 µM and the TGI (M14 melanoma) was 2.63 µM. The GI50 (SNB-75 CNS) was 0.361 µM, the TGI (SNB-75 CNS) was 1.41 µM and the GI50 (EKVX NSCLC) was 1.33 µM. For the same compound, the TGI (EKVX NSCLC) was 3.95 µM, the GI50 (BT-549 breast) was 1.2 µM and the TGI (BT-549 breast) was 2.57 µM. The GI50 (RPMI-8226 leukemia) was 0.134 µM, the TGI (RPMI-8226 leukemia) was 0.291 µM and the GI50 (SF-539 CNS) was 0.159 µM. For the same compound, the TGI (SF-539 CNS) was 1.23 µM, the GI50 (A498 renal) was 0.504 µM and the TGI (A498 renal) was 2.05 µM. For the same compound, the GI50 (IGROV1 ovarian) was 0.228 µM, the TGI (IGROV1 ovarian) was 1.43 µM and the GI50 (MDA-MB-231 breast) was 0.506 µM. For the same compound, the TGI (MDA-MB-231 breast) was 2.06 µM, the GI50 (UO-31 renal) was 1.78 µM and the TGI (UO-31 renal) was 4.05 µM. For the same compound, the GI50 (SK-OV-3 ovarian) was 0.458 µM, the TGI (SK-OV-3 ovarian) was 2.45 µM and the GI50 (SK-MEL-5 melanoma) was 1.01 µM. It also gave a TGI (SK-MEL-5 melanoma) of 2.24 µM, a GI50 (PC-3 prostate) of 1.39 µM and a TGI (PC-3 prostate) of 3.75 µM. For the same compound, the GI50 (NCI-H322M lung) was 0.277 µM, the TGI (NCI-H322M lung) was 1.38 µM and the GI50 (SNB-19 CNS) was 0.433 µM. For the same compound, the TGI (SNB-19 CNS) was 6.93 µM, the GI50 (NCI-H522 lung) was 0.0647 µM and the TGI (NCI-H522 lung) was 0.26 µM. For the same compound, the GI50 (NCI-H23 lung) was 0.327 µM, the TGI (NCI-H23 lung) was 1.34 µM and the GI50 (SN12C renal) was 0.0816 µM. It also gave a TGI (SN12C renal) of 0.348 µM, a GI50 (KM12 colon) of 0.539 µM and a TGI (KM12 colon) of 2.26 µM. It also gave a GI50 (TK-10 renal) of 0.605 µM, a TGI (TK-10 renal) of 3.16 µM and a GI50 (OVCAR-5 ovarian) of 0.378 µM. For the same compound, the TGI (OVCAR-5 ovarian) was 2.46 µM, the GI50 (MDA-MB-468 breast) was 0.305 µM and the TGI (MDA-MB-468 breast) was 0.67 µM. It also gave a GI50 (OVCAR-3 ovarian) of 0.651 µM, a TGI (OVCAR-3 ovarian) of 2.12 µM and a GI50 (DU-145 prostate) of 0.683 µM. For the same compound, the TGI (DU-145 prostate) was 3.49 µM, the GI50 (LOX IMVI melanoma) was 0.665 µM and the TGI (LOX IMVI melanoma) was 1.86 µM. The GI50 (U251 glioblastoma) was 0.223 µM, the TGI (U251 glioblastoma) was 0.766 µM and the GI50 (HCT-116 colon) was 0.267 µM. The TGI (HCT-116 colon) was 1.28 µM, the GI50 (MOLT-4 leukemia) was 0.0232 µM and the TGI (MOLT-4 leukemia) was 0.0509 µM. The GI50 (HL-60(TB) leukemia) was 0.108 µM, the TGI (HL-60(TB) leukemia) was 0.243 µM and the GI50 (SW-620 colon) was 0.452 µM. The TGI (SW-620 colon) was 2.35 µM, the GI50 (SK-MEL-28 melanoma) was 1.82 µM and the TGI (SK-MEL-28 melanoma) was 3.24 µM. For the same compound, the GI50 (MCF7 breast) was 0.208 µM, the TGI (MCF7 breast) was 0.909 µM and the GI50 (NCI-H226 lung) was 0.161 µM. For the same compound, the TGI (NCI-H226 lung) was 1.19 µM, the GI50 (K-562 leukemia) was 1.11 µM and the TGI (K-562 leukemia) was 3.6 µM. The GI50 ([…]-0 renal) was 0.204 µM, the TGI (786-0 renal) was 1.47 µM and the GI50 (MALME-3M melanoma) was 0.702 µM. The TGI (MALME-3M melanoma) was 1.88 µM, the GI50 (SK-MEL-2 melanoma) was 0.261 µM and the TGI (SK-MEL-2 melanoma) was 0.434 µM. For the same compound, the GI50 (NCI/ADR-RES ovarian) was 5.28 µM, the TGI (NCI/ADR-RES ovarian) was over 100 µM and the GI50 (MDA-MB-435 melanoma) was 1.26 µM. The TGI (MDA-MB-435 melanoma) was 2.54 µM, the GI50 (CAKI-1 renal) was 0.929 µM and the TGI (CAKI-1 renal) was 4.69 µM. It also gave a GI50 (T-47D breast) of 1.1 µM, a TGI (T-47D breast) of 3.61 µM and a GI50 (ACHN renal) of 0.345 µM. For the same compound, the TGI (ACHN renal) was 2.24 µM, the GI50 (OVCAR-8 ovarian) was 0.296 µM and the TGI (OVCAR-8 ovarian) was 1.56 µM. It also gave a GI50 (HT29 colon) of 0.339 µM, a TGI (HT29 colon) of 1.53 µM and a GI50 (UACC-62 melanoma) of 0.336 µM. For the same compound, the TGI (UACC-62 melanoma) was 1.15 µM.

`CN1CCN(c2ccc(-c3cccc(CN4CCOCC4)c3)cc2NC(=O)c2c[nH]c(=O)cc2C(F)(F)F)CC1` showed a GI50 (CCRF-CEM leukemia) of 6.98 µM, a TGI (CCRF-CEM leukemia) of 13.8 µM and a GI50 (HCT-15 colon) of 12.3 µM. The TGI (HCT-15 colon) was 44.8 µM, the GI50 (M14 melanoma) was 16 µM and the TGI (M14 melanoma) was 29.8 µM. The GI50 (SNB-75 CNS) was 22.2 µM, the TGI (SNB-75 CNS) was over 68.3 µM and the GI50 (EKVX NSCLC) was 33.5 µM. For the same compound, the TGI (EKVX NSCLC) was over 100 µM, the GI50 (BT-549 breast) was 26.5 µM and the TGI (BT-549 breast) was over 68.5 µM. It also gave a GI50 (RPMI-8226 leukemia) of 17.9 µM, a TGI (RPMI-8226 leukemia) of 43.4 µM and a GI50 (SF-539 CNS) of 12.3 µM. It also gave a TGI (SF-539 CNS) of 28.7 µM, a GI50 (A498 renal) of 17.3 µM and a TGI (A498 renal) of 40.7 µM. For the same compound, the GI50 (IGROV1 ovarian) was 31.3 µM, the TGI (IGROV1 ovarian) was 98.2 µM and the GI50 (MDA-MB-231 breast) was 25.6 µM. It also gave a TGI (MDA-MB-231 breast) of over 94 µM, a GI50 (UO-31 renal) of 14.5 µM and a TGI (UO-31 renal) of over 100 µM. The GI50 (SK-OV-3 ovarian) was over 61.1 µM, the TGI (SK-OV-3 ovarian) was over 100 µM and the GI50 (SK-MEL-5 melanoma) was 13.6 µM. The TGI (SK-MEL-5 melanoma) was 26.6 µM, the GI50 (PC-3 prostate) was 27 µM and the TGI (PC-3 prostate) was over 94.6 µM. For the same compound, the GI50 (NCI-H322M lung) was 53.3 µM, the TGI (NCI-H322M lung) was over 100 µM and the GI50 (SNB-19 CNS) was 46.3 µM. It also gave a TGI (SNB-19 CNS) of over 100 µM, a GI50 (NCI-H522 lung) of 22.8 µM and a TGI (NCI-H522 lung) of 69.6 µM. The GI50 (NCI-H23 lung) was 17.3 µM, the TGI (NCI-H23 lung) was over 86.1 µM and the GI50 (SN12C renal) was over 62.1 µM. It also gave a TGI (SN12C renal) of over 100 µM, a GI50 (KM12 colon) of 15.9 µM and a TGI (KM12 colon) of over 87.6 µM. It also gave a GI50 (TK-10 renal) of 30.5 µM, a TGI (TK-10 renal) of over 90.4 µM and a GI50 (OVCAR-5 ovarian) of 40.9 µM. For the same compound, the TGI (OVCAR-5 ovarian) was over 100 µM, the GI50 (MDA-MB-468 breast) was 12 µM and the TGI (MDA-MB-468 breast) was 28.9 µM. The GI50 (OVCAR-3 ovarian) was 18.9 µM, the TGI (OVCAR-3 ovarian) was over 74.4 µM and the GI50 (DU-145 prostate) was 19.5 µM. It also gave a TGI (DU-145 prostate) of over 100 µM, a GI50 (LOX IMVI melanoma) of 9.13 µM and a TGI (LOX IMVI melanoma) of 23 µM. It also gave a GI50 (U251 glioblastoma) of 12.1 µM, a TGI (U251 glioblastoma) of 30.9 µM and a GI50 (HCT-116 colon) of 12.7 µM. The TGI (HCT-116 colon) was over 78.2 µM, the GI50 (MOLT-4 leukemia) was 5.86 µM and the TGI (MOLT-4 leukemia) was 11.5 µM. It also gave a GI50 (HL-60(TB) leukemia) of 8.87 µM, a TGI (HL-60(TB) leukemia) of 20.1 µM and a GI50 (SW-620 colon) of 11.7 µM. For the same compound, the TGI (SW-620 colon) was over 45.2 µM, the GI50 (SK-MEL-28 melanoma) was 17 µM and the TGI (SK-MEL-28 melanoma) was 31 µM. It also gave a GI50 (MCF7 breast) of 16.8 µM, a TGI (MCF7 breast) of over 62.7 µM and a GI50 (NCI-H226 lung) of 52.5 µM. The TGI (NCI-H226 lung) was over 100 µM, the GI50 (K-562 leukemia) was 12.3 µM and the TGI (K-562 leukemia) was 25.3 µM. For the same compound, the GI50 ([…]-0 renal) was 10.4 µM, the TGI (786-0 renal) was 34.2 µM and the GI50 (MALME-3M melanoma) was 14.7 µM. For the same compound, the TGI (MALME-3M melanoma) was 28.1 µM, the GI50 (SK-MEL-2 melanoma) was 20.9 µM and the TGI (SK-MEL-2 melanoma) was 43.3 µM. For the same compound, the GI50 (NCI/ADR-RES ovarian) was over 58.1 µM, the TGI (NCI/ADR-RES ovarian) was over 100 µM and the GI50 (MDA-MB-435 melanoma) was 31.7 µM. For the same compound, the TGI (MDA-MB-435 melanoma) was over 100 µM, the GI50 (CAKI-1 renal) was 25 µM and the TGI (CAKI-1 renal) was over 100 µM. For the same compound, the GI50 (T-47D breast) was 23.1 µM, the TGI (T-47D breast) was over 88.9 µM and the GI50 (ACHN renal) was 37.9 µM. It also gave a TGI (ACHN renal) of over 100 µM, a GI50 (OVCAR-8 ovarian) of 18.3 µM and a TGI (OVCAR-8 ovarian) of over 100 µM. For the same compound, the GI50 (HT29 colon) was 14.2 µM, the TGI (HT29 colon) was 32 µM and the GI50 (UACC-62 melanoma) was 19 µM. It also gave a TGI (UACC-62 melanoma) of 62.8 µM.
